Target: T1, Intermediate-conductance Ca2+-activated K+ channels (IK channels) (Homo sapiens, UniProt O15554)
T1 construct: expressed in transfected cells
Assay: Whole-cell patch-clamp recording of ionic current through IK channels stably expressed in HEK293 cells
Format: cell-based
Conditions: hIK in HEK293 cells, voltage-ramps -100 to +100 mV, free Ca2+ 100 nM, room temperature
Protocol: In this experiment the ionic current through Intermediate-conductance Ca^2+-activated K^+channels (IK channels) is recorded in the whole-cell mode of the patch-clamp technique.
Intermediate-conductance Ca^2+-activated K^+ channels (IK channels) have been cloned from human placenta and stably expressed in HEK293 cells.
Human IK (hIK) was excised from pT3T7 (GenBank Acc. No. N56819) using EcoR I and Not I and sub-cloned into the mammalian expression vector pNS1Z (NeuroSearch), a custom designed derivative of pcDNA3Zeo (InVitrogen) to give the plasmid construct pNS1Z13 hIK. HEK293 tissue culture cells were grown in DMEM (Dulbecco's Modified Eagle Medium) supplemented with 10% FCS (foetal calf serum) at 37° C. in 5% CO2. […]
Experiments are carried out on one of several patch-clamp set-ups. […] Data are stored directly on the hard-disk and analysed by the IGOR software (Wavemetrics, Lake Oswega, Oreg., USA).
The whole-cell configuration of the patch clamp technique is applied. […] Cell capacitance is electronically compensated and the resistance between the pipette and the cell interior (the series resistance, Rs) is measured and compensated for. […]
The intracellular (pipette) solution has the following composition (conc. in mM): 144 KCl, 10 EGTA, 1.4 MgCl2, 5.17 CaCl2, and 10 HEPES (pH=7.2). The calculated free concentration of Ca^2+ in this solution is 100 nM and that of Mg^2+ is 1 mM. […]

Compound	SC100 (Stimulating Concentration required to induce a 100% increase (doubling) in the basal current)
ON=C1c2ccccc2-c2ccccc21 [9H-9-fluorenone-oxime]	0.08 µM
c1ccc2c(c1)[nH]c1ccccc12 [Carbazole, carbazole]	0.2 µM

Source: patent US6525043B2, “Use of ion channel modulating agents” (NeuroSearch A/S, priority 1999, dated 2003)
